The target of experiment [1] is KRAS G12V (Homo sapiens, UniProt P01116, G12V). Kind of experiment: SOS-catalyzed nucleotide exchange assay, KRAS G12V (Procedure A). The format is biochemical. The following applies: GNE. The method in brief:
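Biotinylated KRAS G12V was loaded with Bodipy-GDP alongside Terbium-streptavidin to form a TR-FRET complex, which was preincubated with compounds for 60 minutes in 384-well plates. Human SOS protein and unlabeled GTP were then added for 90 minutes, giving final concentrations of 1.25 nM KRAS-G12V, 160 nM SOS and 3 mM GTP. The 520/495 nm emission ratio was read on an Envision.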

Experiment [2] deals with KRAS WT (Homo sapiens, UniProt P01116). Kind of experiment: SOS-catalyzed nucleotide exchange assay, KRAS WT (Procedure A). The format is biochemical. As to conditions: GNE. The method in brief:
(§1)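 Compounds were preincubated 60 min with a biotinylated RAS·Bodipy-GDP/Tb-streptavidin TR-FRET complex, and exchange was started with human SOS plus 3 mM GTP at RT. RAS/SOS: G12C 3 nM/40 nM, WT and G12D 1 nM/40 nM, all 60 min; G13D 1.25 nM/0 nM, 30 min. 520/495 ratio normalized to DMSO and saturating inhibitor, four-parameter fit.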

For experiment [3], the target named is T1, AsPC-1 cells (Homo sapiens, UniProt P01116, G12D).
T1 construct: p-ERK/total ERK AlphaSureFire read-out
Kind of experiment: Cellular phospho-ERK assay, AsPC-1 cells (KRAS G12D). Format: cell-based. The following applies: 2 hours, read-out: AsPC1 pERK IC50. Summed up:
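PANC08.13 or AsPC-1 cells (homozygous KRAS G12D) were seeded overnight, then treated for 2 h at 37 °C with a 10-point 1:3 titration from 30 μM. Lysates were assayed by AlphaLISA SureFire for p-ERK and total ERK. IC50 came from a 4-parameter fit of the p-ERK/total ERK ratio.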

Experiment [4] has as its target KRAS G12D (Homo sapiens, UniProt P01116, G12D). Kind of experiment: SOS-catalyzed nucleotide exchange assay, KRAS G12D (Procedure A). As to conditions: guanine nucleotide exchange (GNE). The format is biochemical. Summed up: as §1

T1 sequence (P01116 1-188 isoform P01116-2 G12D): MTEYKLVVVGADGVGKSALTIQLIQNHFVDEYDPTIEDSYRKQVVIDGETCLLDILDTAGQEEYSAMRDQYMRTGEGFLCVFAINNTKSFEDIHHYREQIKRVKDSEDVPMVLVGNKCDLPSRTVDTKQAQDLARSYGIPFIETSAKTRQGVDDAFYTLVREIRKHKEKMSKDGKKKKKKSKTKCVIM
Chain of KRAS G12V (P01116 with tags, fused parts or gaps isoform P01116-2 G12V): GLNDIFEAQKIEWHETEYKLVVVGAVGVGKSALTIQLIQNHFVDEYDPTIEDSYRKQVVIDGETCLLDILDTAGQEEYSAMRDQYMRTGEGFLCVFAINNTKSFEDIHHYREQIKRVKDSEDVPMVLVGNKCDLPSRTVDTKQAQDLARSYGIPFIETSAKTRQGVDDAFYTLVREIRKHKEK
Chain of KRAS G12D (P01116 with tags, fused parts or gaps isoform P01116-2 G12D): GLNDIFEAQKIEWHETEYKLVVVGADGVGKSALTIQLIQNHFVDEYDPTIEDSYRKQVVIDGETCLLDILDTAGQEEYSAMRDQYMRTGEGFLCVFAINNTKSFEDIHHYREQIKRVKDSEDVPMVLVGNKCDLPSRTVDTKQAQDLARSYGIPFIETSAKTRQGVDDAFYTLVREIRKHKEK
Chain of KRAS WT (P01116 with tags, fused parts or gaps isoform P01116-2): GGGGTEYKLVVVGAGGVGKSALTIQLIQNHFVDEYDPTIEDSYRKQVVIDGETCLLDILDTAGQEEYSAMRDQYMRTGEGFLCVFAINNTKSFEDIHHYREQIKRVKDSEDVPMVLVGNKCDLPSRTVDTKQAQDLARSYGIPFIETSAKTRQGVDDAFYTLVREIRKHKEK

One may read the IC50 as the midpoint of a concentration-inhibition curve. For the compound `C#Cc1c(F)ccc2cc3[nH]ncc3c(-c3nccc4c3sc3nc(OCC5(C(F)(F)F)CCOCC5)nc(N5C[C@H]6CC[C@@H](C5)N6)c34)c12` [Ex-110, 4-((1R,5S)-3,8-diazabicyclo[3.2.1]octan-3-yl)-8-(5-ethynyl-6-fluoro-1H-benzo[f]indazol-4-yl)-2-((4-(trifluoromethyl)tetrahydro-2H-pyran-4-yl)methoxy)pyrido[4′,3′:4,5]thieno[2,3-d]pyrimidine], the IC50 in experiment [1] was above 11100 nM; in experiment [2], above 11100 nM; in experiment [3], 8280 nM; in experiment [4], 2050 nM.

For `C#Cc1c(F)ccc2cc3[nH]ncc3c(-c3nccc4c3sc3nc(OC[C@]5(CN6CCC(COC)CC6)CC5(F)F)nc(N5C[C@H]6CC[C@@H](C5)N6)c34)c12` [Ex-111, 4-((1R,5S)-3,8-diazabicyclo[3.2.1]octan-3-yl)-2-(((R)-2,2-difluoro-1-((4-(methoxymethyl)piperidin-1-yl)methyl)cyclopropyl)methoxy)-8-(5-ethynyl-6-fluoro-1H-benzo[f]indazol-4-yl)pyrido[4′,3′:4,5]thieno[2,3-d]pyrimidine], the IC50 in experiment [1] turned out to be 4400 nM; in experiment [2], 1720 nM; in experiment [3], 172 nM; in experiment [4], 5.43 nM.

With `Cc1cc2[nH]ncc2c(-c2nccc3c2sc2nc(OC[C@@]45CCCN4C[C@H](F)C5)nc(N4[C@@H]5CC[C@H]4CN(CC(C)O)C5)c23)c1C(F)(F)F` (stereo partly drawn) [Ex-112], the concentration for half-maximal inhibition (IC50) in experiment [1] was above 11100 nM; in experiment [2] it was above 11100 nM; in experiment [3], 14700 nM; in experiment [4] it was 6770 nM.

With `Cc1cc2[nH]ncc2c(-c2nccc3c2sc2nc(OC[C@@]45CCCN4C[C@H](F)C5)nc(N4C[C@H]5CC[C@@H](C4)N5CC(C)O)c23)c1C(F)(F)F` (stereo partly drawn) [Ex-113, 1-((1R,5S)-3-(2-(((2R,7aS)-2-fluorotetrahydro-1H-pyrrolizin-7a(5H)-yl)methoxy)-8-(6-methyl-5-(trifluoromethyl)-1H-indazol-4-yl)pyrido[4′,3′:4,5]thieno[2,3-d]pyrimidin-4-yl)-3,8-diazabicyclo[3.2.1]octan-8-yl)propan-2-ol], the IC50 came out at 1850 nM in experiment [1], 1110 nM in experiment [2], 2380 nM in experiment [3] and 492 nM in experiment [4].

`C#Cc1c(F)ccc2cc3[nH]ncc3c(-c3nccc4c3sc3nc(OC[C@@]56CCCN5C/C(=C\F)C6)nc(N5C[C@@H]6C[C@H](O)[C@H](C5)N6)c34)c12` [Ex-114, (1S,5S,6S)-3-(8-(5-ethynyl-6-fluoro-1H-benzo[f]indazol-4-yl)-2-(((S,Z)-2-(fluoromethylene)tetrahydro-1H-pyrrolizin-7a(5H)-yl)methoxy)pyrido[4′,3′:4,5]thieno[2,3-d]pyrimidin-4-yl)-3,8-diazabicyclo[3.2.1]octan-6-ol]: the IC50 in experiment [1] stood at 37.7 nM; in experiment [2], 36.2 nM; in experiment [3] it was 97 nM; in experiment [4], 1.81 nM.

With `FC(F)(F)C1(COc2nc(N3C[C@H]4CC[C@@H](C3)N4)c3c(n2)sc2c(-c4c(C5CC5)c(Cl)cc5[nH]ncc45)nccc23)CCOCC1` [Ex-118, 4-((1R,5S)-3,8-diazabicyclo[3.2.1]octan-3-yl)-8-(6-chloro-5-cyclopropyl-1H-indazol-4-yl)-2-((4-(trifluoromethyl)tetrahydro-2H-pyran-4-yl)methoxy)pyrido[4′,3′:4,5]thieno[2,3-d]pyrimidine], the 50% inhibitory concentration (IC50) was above 11100 nM in experiment [1], 6270 nM in experiment [2], 4880 nM in experiment [3] and 3200 nM in experiment [4].

Source of the values: patent publication US20260347372A1, “SMALL MOLECULE INHIBITORS OF KRAS G12D MUTANT” (MERCK SHARP & DOHME LLC, priority 2023, published 2026).
